Results: patent US11944623B2, “Modulators of Kv3 channels to treat pain” (Autifony Therapeutics Limited, priority 2015, dated 2024)

What was measured:
human Kv3.3 channels = biological target: T1, human Kv3.3 channels (Homo sapiens, UniProt Q14003); test: hKv3.3 IonWorks Quattro whole-cell current potentiation assay; assay type: cell-based; conditions: for mean increase in human Kv3.3 peak current at 0 mV: 12.5 micromolar; for EC50: read-out: pEC50 for Kv3.3 (converted)
T1 construct: expressed in transfected cells
T1 sequence (Q14003 1-757): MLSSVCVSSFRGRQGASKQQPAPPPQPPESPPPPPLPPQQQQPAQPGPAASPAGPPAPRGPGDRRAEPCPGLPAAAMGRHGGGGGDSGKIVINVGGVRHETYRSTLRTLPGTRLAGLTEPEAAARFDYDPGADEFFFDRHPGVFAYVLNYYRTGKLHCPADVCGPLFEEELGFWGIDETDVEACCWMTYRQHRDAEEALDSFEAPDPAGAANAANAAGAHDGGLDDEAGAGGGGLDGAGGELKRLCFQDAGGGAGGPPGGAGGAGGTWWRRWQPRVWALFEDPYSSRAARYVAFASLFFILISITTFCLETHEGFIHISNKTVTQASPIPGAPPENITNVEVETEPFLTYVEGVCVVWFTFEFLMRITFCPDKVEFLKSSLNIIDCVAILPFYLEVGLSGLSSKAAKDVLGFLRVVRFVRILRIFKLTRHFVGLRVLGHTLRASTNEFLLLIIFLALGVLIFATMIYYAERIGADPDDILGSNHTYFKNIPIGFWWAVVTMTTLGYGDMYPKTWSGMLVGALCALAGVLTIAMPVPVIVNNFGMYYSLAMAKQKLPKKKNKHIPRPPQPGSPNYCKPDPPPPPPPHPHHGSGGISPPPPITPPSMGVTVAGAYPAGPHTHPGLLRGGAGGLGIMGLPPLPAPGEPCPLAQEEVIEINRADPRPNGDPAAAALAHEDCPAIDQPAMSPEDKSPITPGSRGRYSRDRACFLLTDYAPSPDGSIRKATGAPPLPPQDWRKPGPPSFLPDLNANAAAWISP
Excerpt: The ability of the compounds of the invention to modulate the voltage-gated potassium channel subtypes Kv3.3/Kv3.2/Kv3.1 may be determined using the following assay. Analogous methods may be used to investigate the ability of the compounds of the invention to modulate other channel subtypes.
To assess compound effects on human Kv3.3 channels (hKv3.3), a stable cell line expressing human Kv3.3 channels was created by transfecting Chinese Hamster Ovary (CHO)-K1 cells with a pBacMire_KCNC-3 vector. Cells were cultured in DMEM/F12 (Gibco) supplemented with 10% Foetal Bovine Serum (Gibco), 1× non-essential amino acids (Invitrogen) and geneticin (G418) 400 microg/mL. Cells were grown and maintained at 37° C. in a humidified environment containing 5% CO2 in air.
The day of the experiment, cells were removed from the incubator and the culture medium removed. Cells were washed with 5 ml of Dulbecco's PBS (DPBS) calcium and magnesium free and detached by the addition of 3 ml Versene (Invitrogen, Italy) followed by a brief incubation at 37° C. for 5 minutes. The flask was tapped to dislodge cells and 10 ml of DPBS containing calcium and magnesium was added to prepare a cell suspension. The cell suspension was then placed into a 15 ml centrifuge tube and centrifuged for 2 min at 1200 rpm. After centrifugation, the supernatant was removed and the cell pellet re-suspended in 4 ml of DPBS containing calcium and magnesium using a 5 ml pipette to break up the pellet. Cell suspension volume was then corrected to give a cell concentration for the assay of approximately 3 million cells per ml.
Experiments were conducted at room temperature using IonWorks Quattro™ planar array electrophysiology technology (Molecular Devices Corp.) with PatchPlate™ PPC. Stimulation protocols and data acquisition were carried out using a microcomputer (Dell Pentium 4). Planar electrode hole resistances (Rp) were determined by applying a 10 mV voltage step across each well. These measurements were performed before cell addition. After cell addition and seal formation, a seal test was performed by applying a voltage step from −80 mV to −70 mV for 160 ms. Following this, amphotericin-B solution was added to the intracellular face of the electrode to achieve intracellular access. Cells were held at −70 mV. Leak subtraction was conducted in all experiments by applying 50 ms hyperpolarizing (10 mV) prepulses to evoke leak currents followed by a 20 ms period at the holding potential before test pulses. For hKv3.2 and hKv3.1 assays, from the holding potential of −70 mV, a first test pulse to −15 mV was applied for 100 ms and following a further 100 ms at −70 mV, a second pulse to 40 mV was applied for 50 ms. Cells were then maintained for a further 100 ms at −100 mV and then a voltage ramp from −100 mV to 40 mV was applied over 200 ms. For hKv3.3 assays, from the holding potential of −70 mV, a first test pulse to 0 mV was applied for 500 ms and following a further 100 ms at −70 mV, a second pulse to 40 mV was applied for 200 ms. These longer test pulses were used to study inactivation of hKv3.3 channels.
Test pulses protocol may be performed in the absence (pre-read) and presence (post-read) of the test compound. Pre- and post-reads may be separated by the compound addition followed by a 3-minute incubation.
The intracellular solution contained the following (in mM): K-gluconate 100, KCl 54, MgCl2 3.2, HEPES 5, adjusted to pH 7.3 with KOH. Amphotericin-B solution was prepared as 50 mg/ml stock solution in DMSO and diluted to a final working concentration of 0.1 mg/ml in intracellular solution. The external solution was Dulbecco's Phosphate Buffered Saline (DPBS) and contained the following (in mM): CaCl2 0.90, KCl 2.67, KH2PO4 1.47, MgCl·6H2O 0.493, NaCl 136.9, […] 8.06, with a pH of 7.4. […]

[1] = biological target: T2, human BK (hKCa1.1/β1) potassium channel (Homo sapiens, UniProt Q12791); test: BK QPatch HT assay; assay type: cell-based; conditions: 10 µM concentration (N=3)
T2 construct: expressed in transfected cells; host or cells: CHO cell line
Experimental: The effects of compounds on cloned human BK (hKCa1.1/β1) potassium channel (encoded by the human KCNMA1 and KCNMB1 genes) were examined in a CHO cell line using a QPatch HT® (Sophion Bioscience A/S, Denmark) assay. Onset and steady-state inhibition of hBK currents were measured using a voltage pulse pattern with a depolarizing test pulse (+100 mV amplitude, 200 ms duration) at 10 s intervals from a holding potential of −80 mV. The peak amplitude of the delayed outward current was measured for each test pulse. The compounds were evaluated at 10 μM in three cells for each compound, after a 3 minute compound application. The steady state inhibition produced by each compound was calculated.

T2 sequence (Q12791 whole entry): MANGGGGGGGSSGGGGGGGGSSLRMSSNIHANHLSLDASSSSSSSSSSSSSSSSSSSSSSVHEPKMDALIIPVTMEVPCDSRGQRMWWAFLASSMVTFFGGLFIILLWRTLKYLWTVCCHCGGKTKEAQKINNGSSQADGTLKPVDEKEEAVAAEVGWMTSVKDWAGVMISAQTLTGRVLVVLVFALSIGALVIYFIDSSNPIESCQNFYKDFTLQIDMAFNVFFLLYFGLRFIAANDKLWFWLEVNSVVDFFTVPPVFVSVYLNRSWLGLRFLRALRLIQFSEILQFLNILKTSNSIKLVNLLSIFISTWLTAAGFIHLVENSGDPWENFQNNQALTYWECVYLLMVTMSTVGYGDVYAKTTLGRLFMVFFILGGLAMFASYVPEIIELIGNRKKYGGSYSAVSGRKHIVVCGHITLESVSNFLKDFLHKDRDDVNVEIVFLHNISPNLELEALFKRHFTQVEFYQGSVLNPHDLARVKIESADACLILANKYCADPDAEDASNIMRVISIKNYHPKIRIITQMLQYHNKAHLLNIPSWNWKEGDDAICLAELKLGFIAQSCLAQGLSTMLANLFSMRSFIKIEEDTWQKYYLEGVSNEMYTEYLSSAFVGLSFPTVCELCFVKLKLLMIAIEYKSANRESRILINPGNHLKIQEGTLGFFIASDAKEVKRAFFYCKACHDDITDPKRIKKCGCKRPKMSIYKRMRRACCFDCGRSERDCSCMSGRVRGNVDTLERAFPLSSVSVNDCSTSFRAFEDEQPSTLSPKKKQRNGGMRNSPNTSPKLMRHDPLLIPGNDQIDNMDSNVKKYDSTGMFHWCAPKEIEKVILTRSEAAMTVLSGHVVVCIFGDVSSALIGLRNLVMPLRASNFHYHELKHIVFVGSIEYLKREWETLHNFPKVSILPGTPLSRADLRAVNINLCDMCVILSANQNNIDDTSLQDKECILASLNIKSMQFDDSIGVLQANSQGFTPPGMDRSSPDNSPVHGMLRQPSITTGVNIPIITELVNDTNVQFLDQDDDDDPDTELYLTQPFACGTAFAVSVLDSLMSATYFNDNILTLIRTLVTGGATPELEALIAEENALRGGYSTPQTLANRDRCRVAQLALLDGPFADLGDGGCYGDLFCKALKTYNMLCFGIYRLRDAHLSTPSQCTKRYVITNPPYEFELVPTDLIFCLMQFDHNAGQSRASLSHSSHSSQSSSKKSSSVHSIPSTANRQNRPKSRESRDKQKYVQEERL
T2 sequence (Q16558 whole entry partner): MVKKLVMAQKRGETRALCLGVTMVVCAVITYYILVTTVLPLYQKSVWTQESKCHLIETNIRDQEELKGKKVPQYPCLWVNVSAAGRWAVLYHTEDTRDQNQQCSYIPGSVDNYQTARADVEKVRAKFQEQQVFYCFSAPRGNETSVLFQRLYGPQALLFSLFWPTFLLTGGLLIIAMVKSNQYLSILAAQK

mean increase in human Kv3.3 peak current at 0 mV (human Kv3.3 channels) | EC50 (human Kv3.3 channels) | effect on BK channel currents [1] | SMILES
192% | 6.76 µM | No significant effect | Cc1ccc(Oc2ncc(N3C(=O)NC(C)(C)C3=O)cn2)c2c1OCC21CC1 [Compound 1, 5,5-dimethyl-3-[2-(7-methylspiro[2H-benzofuran-3,1′-cyclopropane]-4-yl)oxypyrimidin-5-yl]imidazolidine-2,4-dione]
113% | 11.7 µM | No significant effect | CC[C@@]1(C)NC(=O)N(c2cnc(Oc3ccc(C)c(OC(F)(F)F)c3)nc2)C1=O [Compound 2, (5R)-5-ethyl-5-methyl-3-[2-({4-methyl-3-[(trifluoromethyl)oxy]phenyl}oxy)-5-pyrimidinyl]-2,4-imidazolidinedione]
– | 17.4 µM | No significant effect | Cc1ccc(Oc2ccc(-n3c(C)n[nH]c3=O)cn2)c2c1OCC21CC1 [Compound 3, 5-methyl-4-{6-[(7-methylspiro[1-benzofuran-3,1′-cyclopropan]-4-yl)oxy]pyridin-3-yl}-2,4-dihydro-3H-1,2,4-triazol-3-one]
365% | – | – | CC[C@H]1NC(=O)N(c2ccc(Oc3ccc(C)c4c3C3(CC3)CO4)nc2)C1=O [Compound 4, (5R)-5-ethyl-3-[6-(7-methylspiro[2H-benzofuran-3,1′-cyclopropane]-4-yl)oxy-3-pyridyl]imidazolidine-2,4-dione]
